The subject of experiment [1] is metastatic colorectal cancer. The following applies: cited from earlier work.
The subject of experiment [2] is PC-3 human prostate carcinoma xenografts. In words: PC-3 xenograft combination therapy (Example 3, first study).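 As to all read-outs here: subcutaneous PC-3 tumors in male athymic NCr nude mice aged 6-7 weeks, combination agents dosed within 30 min of each other, animals euthanized once tumors exceeded 2 g.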 To be noted: for Tumor Growth Delay: T-C, evaluation size 750 mg; for % T/C Day 22: VGX-100 40 mg/kg IP, bevacizumab 10 mg/kg IP, docetaxel 10 mg/kg IV, median tumor mass vs control; for % TFS (tumor free survivors): at termination, Day 160; for Complete regression / Partial regression / Tumor free survivor: yes/no; for Total CR / Total PR / Total TFS: number of animals of 10.
Method: Docetaxel was administered intravenously at 10 mg/kg weekly for three injections.
HIgG1 Isotype control-humanised antibody (6.4-12.36 mg/ml) and VGX-100 (5.53 and 5.75 mg/ml) were provided as frozen colorless stock solutions in Dulbecco's phosphate buffered saline (DPBS) and stored from light at −80° C. The stock solutions were thawed and stored at 4° C. when treatment began. The dosing solutions (40 mg/kg in 0.2 ml/20 g body weight) were prepared by diluting the stock solution with DPBS. The resulting formulations were clear with pH values ranging from 7.02-7.21. The dosing vials were kept on wet ice during dosing, gently pipetted and not aspirated through a needle except during administration. Dosing solutions were prepared weekly in DPBS and stored protected from light at 4° C. while not in use.
Docetaxel (lot no. D9A095) was manufactured by Sanofi-Aventis and obtained from McKesson as a pale yellow solution in 50% EtOH/50% Tween80. It was stored protected from light at 4° C. Docetaxel was diluted as directed on the package insert with the provided diluent (sterile water) to produce a clear and colorless 10 mg/ml stock solution. On each treatment day, a fresh 10 mg/ml stock was prepared and further diluted with water to achieve the appropriate concentration. The resulting solution was clear and colorless with a pH of 7.16.
All test articles were administered within two hours of preparation. For groups receiving combination therapy, the drugs were administered in the order presented in Table 1 and within 30 minutes of one another.
Male NCR(NCRNU-M) athymic mice were obtained from Taconic. They were 6-7 weeks old on Day 1 of the experiment. The mice were fed irradiated Rodent Diet 5053 (LabDiet™) and water ad libitum. The mice were housed in static cages with Bed-O'Cobs™ bedding inside Biobubble® Clean Rooms that provide H.E.P.A filtered air into the bubble environment at 100 complete air changes per hour. All treatments, body weight determinations, and tumor measurements were carried out in the bubble environment. The environment was controlled to a temperature range of 21.1±1.1° C. (70±2° F.) and a humidity range of 30-70%.
Test mice were implanted subcutaneously on Day 0. […] Mice with tumors in excess of 2 g or with ulcerated tumors were euthanized, as were those found in obvious distress or in a moribund condition.
PC-3 cells were obtained from ATCC and expanded using Ham's F-12 media supplemented with 10% fetal bovine serum and 1% penicillin-streptomycin-glutamine in 5% CO2 atmosphere at 37° C. When expansion was complete, the cells were collected using Trypsin (Cell Gro®), the trypsin neutralized, and the cells pooled for implantation. The PC-3 (Passage 10) cell suspension was counted using trypan blue exclusion with a hemacytometer. The cell suspension was reduced to a pellet using an Eppendorf 5810R centrifuge at 1500 rpm (300×g) for 5 minutes at 4° C. A 2.5×10^7 cells/ml suspension was prepared in 50% serum free media and 50% Matrigel®. Pre-injection viability was 97.7%. Test animals were implanted subcutaneously on Day 0 with 5×10^6 cells/animal (0.2 ml) using a 27-gauge needle and syringe. The cell suspension was maintained on wet ice to minimize the loss of viability and inverted frequently to maintain a uniform cell suspension during the inoculation procedure.
Treatments began on Day 8, when the mean estimated tumor mass for all groups in the experiment was 129 mg (range of group means, 123-134 mg). All animals weighed≧19.2 g at the initiation of therapy. Mean group body weights at first treatment were matched (range of group means, 21.5-22.8 g). All animals were dosed according to individual body weight on the day of treatment (0.2 ml/20 g).

The subject of experiment [3] is KP4 human pancreatic tumors. In words: KP4 pancreatic xenograft (Example 8). To be noted: VGX-100 40 mg/kg and/or Avastin 10 mg/kg; for % T/C: after 30 days.
Method: VGX-100 was administered at 20 or 40 mg/kg for single therapy and at 40/mg/kg for combination therapy.
To initiate the study, 5×10^6 of KP4 cells suspended in 100 μl of a mixture of medium/Matrigel (1:1) were subcutaneously implanted to the nude mice in the right flank region. Cancer cells were implanted into 90 mice. Animals were monitored for tumor growth daily after cell implantation. When tumor volumes reached 80-100 mm^3, mice were randomized into 5 groups of 10 mice each using only mice having tumor volumes closest to the mean value. Mice with tumor volumes too big or too small were excluded from the study. Tumor volumes were measured using the formula V=L×W×H×π/6, where L and W represented the longer and shorter diameters of the tumor and H represented the height of the tumor. The treatment with drugs was initiated on the day after randomization. […] All treatments were administered intraperitoneally twice weekly for 30 days.
Throughout the entire study, tumor volumes were measured twice weekly and body weights once weekly. […] Unscheduled sacrifices were performed if tumor volumes reached>2,000 mm^3, animals lost>25% of their original body weights, tumor ulceration appeared, or mice became moribund. At the end of the experiment, tumors were removed, embedded in Optimal Cutting Temperature (OCT), and stored at −80° C. for IHC analysis. Gross examination was conducted on liver, lung, spleen, kidneys, testes, and prostate. If no abnormal observation was detected on these organs, the tissues were discarded.
Tumor size was measured 2-3 times weekly with calipers. Size of tumors relative to controls is calculated after 30 days of treatment.
For experiment [4], the system named is U87MG human glioblastoma tumors. In words: U87MG glioblastoma xenograft, combination (Example 7). The format is in vivo, nude mice. To be noted: VGX-100 40 mg/kg, bevacizumab 10 mg/kg, administered alone. Here is the method: This experiment was conducted broadly in accordance with Example 3, except that U87MG glioblastoma cells were substituted for PC-3 prostate cancer cells. Cells from a human glioblastoma tumor line (U87MG) were implanted subcutaneously into mice and grown until the tumors reached an average size of approximately 150 mg. […] There were 10 animals per treatment group.

Setting [5] is: Mayo Clinic or Roswell Park regimen, newly diagnosed.
Where [6] appears, read: tumor doubling time, individual animals.
[7] abbreviates: subjects progressed following 5-FU therapy.

The source of these data is US20130344065A1, “Combination Treatment with VEGF-C Antagonists” (Vegenics Pty Ltd, priority 2010, published 2013).

Where “and” joins values, the source holds several entries; their conditions need not be identical. Identical values can stand only once.

Turning to 5-FU/leucovorin, in experiment [1] (setting [5]), the Median survival was 12-14 months and the “Median time to disease progression” value is recorded as 4-5 months.
With `CC(=O)O[C@@]12CO[C@@H]1C[C@H](O)[C@@]1(C)C(=O)[C@H](O)C3=C(C)[C@@H](OC(=O)[C@H](O)[C@@H](NC(=O)OC(C)(C)C)c4ccccc4)C[C@@](O)([C@@H](OC(=O)c4ccccc4)[C@H]21)C3(C)C` [Docetaxel, docetaxel], in experiment [2] (750 mg, individual animals), the “Time to evaluation size” value was 81.0 days (2×) and >160 days (2×) and 62.3 days and 89.1 days and 72.1 days and 69.0 days and 62.5 days and 66.5 days. Also, in experiment [2] (same doses), the “Tumor Growth Delay” value turned out to be 56.5 days; the “% TFS (tumor free survivors)” value is “Twenty percent and 20%”; the “% CR (complete regression)” value is 100%; the “% PR (partial regression)” value is 0%. Further, in experiment [2] (same doses), the “Anticancer activity of regimen” value is reported as “highly active” and the “Apparent Net Tumor Cell Kill (logs)” value is reported as 1.13 logs. For the same compound, in experiment [2], the “% T/C Day 22” value is on record as 8%, the “Total CR” value came out at 10, the “Total PR” value is 0 and the “Total TFS” value was 2. The “% T/C: tumor burden in treatment group compared to control” value in experiment [2] (at day 160) is listed as 82.4%. Moreover, in experiment [2] (group mean), the “Td” value is 8.8 days and the “Time to fold growth EP” value was determined as 86.0 days. Moreover, in experiment [2] (group median), the “Td” value is listed as 8.8 days, the “Time to evaluation size” value is 76.5 days and the “Time to fold growth EP” value was 69.6 days. Besides, in experiment [2] (individual animals), the “Time to fold growth EP” value is 78.1 days and >160 days (2×) and 57.4 days and 81.6 days and 65.4 days and 58.5 days and 60.0 days and 73.3 days and 65.9 days; the Complete regression entry is reported as “yes”; the Partial regression entry was “no”; the Tumor free survivor entry was “no (8×) and yes (2×)”. Besides, the “Average Survival” value in experiment [2] (study to day 160) amounted to 108.6 days. Moreover, the “Td” value in experiment [2] (setting [6]) was 5.1 days and 8.5 days and 9.4 days and 9.1 days and 13.2 days and 6.5 days and 13.4 days and 5.0 days.
For `CCc1c2c(nc3ccc(OC(=O)N4CCC(N5CCCCC5)CC4)cc13)-c1cc3c(c(=O)n1C2)COC(=O)[C@]3(O)CC` [irinotecan], in experiment [1] (setting [7]), the “Prolongation of survival vs best supportive care” value is on record as 2.8 month and the “Prolongation of survival vs infusional 5-FU” value was 2.2 month.
“Bevacizumab: recombinant humanized VEGF-A monoclonal antibody”: in experiment [3], the “Mean Tumor Vol. at D30 (mm3)” value is on record as 596.7 mm3. Further, in experiment [3] (listed as Avastin), the “% T/C” value stood at 30.4%. Further, the “% T/C” value in experiment [3] (listed as bevacizumab) was found to be 30.4%. Further, in experiment [2] (750 mg, individual animals), the “Time to evaluation size” value is 36.3 days and 24.4 days and 25.8 days and 33.0 days and 30.5 days and 25.2 days and 25.4 days and 44.3 days and 18.0 days and 22.7 days. In addition, in experiment [2] (same doses), the “Tumor Growth Delay” value came to 5.6 days, the “% TFS (tumor free survivors)” value was 0%, the “% CR (complete regression)” value was 0% and the “% PR (partial regression)” value is listed as 0%. Also, in experiment [2] (same doses), the “Apparent Net Tumor Cell Kill (logs)” value was −4.91 logs and the “Tumor regressions” value is listed as “No tumor regressions were observed”. Further, in experiment [2], the “% T/C Day 22” value is 70%, the “Total CR” value is on record as 0, the “Total PR” value is listed as 0 and the “Total TFS” value is listed as 0. Besides, in experiment [2] (group mean), the “Td” value was found to be 12.2 days and the “Time to evaluation size” value amounted to 28.6 days. Moreover, in experiment [2] (group median), the “Td” value was 9.6 days and the “Time to evaluation size” value worked out at 25.6 days. Also, in experiment [2] (individual animals), the Complete regression entry is on record as “no”, the Partial regression entry is “no” and the Tumor free survivor entry is given as “no”. In experiment [2] (setting [6]), the “Td” value is 16.9 days and 7.4 days and 7.5 days and 13.7 days and 16.8 days and 10.6 days and 8.6 days and 27.8 days and 4.8 days and 8.4 days. Besides, the “Effect on tumor growth” value in experiment [4] is recorded as “only a minor effect”.
